Reference: PMC7531004, “Discovery of gramicidin A analogues with altered activities by multidimensional screening of a one-bead-one-compound library” (Nature Communications, 2020)
Where a SMILES comes first, the peptide text is derived from it. [ ]: non-standard residue; d: D form. The star is where a group is joined. NHCH2CH2OH = OCCN*; For = O=C*

Key:
[1] = test system: Streptococcus pyogenes SSI-9; assay: Antibacterial activity assay of bead-derived peptides (three concentrations); format: cell-based; set-up: key: +++: inhibition by the 640-fold diluted peptide solution; ++: inhibition by the 160-fold diluted solution; +: inhibition by the 40-fold diluted solution; -: no inhibition; settings: S. pyogenes, bead-derived peptide solution, three concentrations
Summary of the method: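 Bead-derived library peptide stocks in DMSO were tested undiluted and after 4- and 16-fold DMSO dilution against S. pyogenes SSI-9 (2 × 10^5 CFU/well) in cation-adjusted Mueller Hinton Broth with 5% laked horse blood. After 18 h at 37 °C, wells were scored for precipitation of grown cells.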

[2] = H+/Na+ transport assay of bead-derived peptides (one-point); format: biochemical; set-up: key: relative activity; mean of two control wells = 1.00; settings: bead-derived peptide solution, EYPC/EYPG LUVs;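 note: relative to parent gramicidin A activity set to 1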
Summary of the method: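 H+/Na+ transport is monitored through pyranine fluorescence in freshly extruded LUVs after a 30-min room-temperature vortex with each library peptide at a single concentration. Signals are normalized to detergent (Triton X-100) and untreated controls.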

[3] = test system: P388 mouse leukemia cells; settings: 92 h
Summary of the method: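 First, library peptide stocks are diluted 250-fold in RPMI1640 with 10% heat-inactivated FBS. Next, they are mixed with P388 cells to give 1 × 10^4 cells/mL and incubated 92 h at 37 °C, 5% CO2. Finally, viability (%) is scored by WST-1 absorbance at 415 nm.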

For CNC(=O)C[C@@H](NC(=O)[C@@H](NC(=O)[C@H](NC(=O)[C@H](C)NC(=O)[C@H](NC(=O)[C@H](C)NC(=O)CNC(=O)[C@@H](NC=O)C(C)C)C(C)C)C(C)C)C(C)C)C(=O)N[C@@H](Cc1c[nH]c2ccccc12)C(=O)N[C@H](CC(C)C)C(=O)N[C@@H](Cc1c[nH]c2ccccc12)C(=O)N[C@H](CC(C)C)C(=O)N[C@@H](Cc1c[nH]c2ccccc12)C(=O)N[C@@H](C(=O)N[C@@H](Cc1c[nH]c2ccccc12)C(=O)NCCO)C(C)C [compound 6510] (For-VGA[dV]A[dV]V[dD](NHMe)W[dL]W[dL]W[dV]W-NHCH2CH2OH), the antibacterial activity [1] was “-”, the “H+/Na+ transport activity normalized against the value of 1 (1.00)” value (shortened to “H+/Na+ transport activity normalized”) [2] was 1.36 and the cell viability/% [3] was 100.0%.

In the case of CC(C)C[C@@H](NC(=O)[C@H](C)NC(=O)CNC(=O)[C@@H](NC=O)C(C)C)C(=O)N[C@@H](C)C(=O)N[C@H](CC(C)C)C(=O)N[C@H](C(=O)N[C@H](CC(C)C)C(=O)N[C@@H](Cc1c[nH]c2ccccc12)C(=O)N[C@@H](C(=O)N[C@@H](Cc1c[nH]c2ccccc12)C(=O)N[C@@H](C(=O)N[C@@H](Cc1c[nH]c2ccccc12)C(=O)N[C@@H](C(=O)N[C@@H](Cc1c[nH]c2ccccc12)C(=O)NCCO)C(C)C)[C@H](C)O)C(C)C)C(C)C [compound 8722] (For-VGA[dL]A[dL]V[dL]W[dV]W[dT]W[dV]W-NHCH2CH2OH), the antibacterial activity [1] is reported as “-”, the “H+/Na+ transport activity normalized” value [2] is reported as 1.09 and the cell viability/% [3] is reported as 70.8%.

With CC(C)C[C@@H](NC(=O)[C@H](Cc1c[nH]c2ccccc12)NC(=O)[C@@H](CC(C)C)NC(=O)[C@H](Cc1c[nH]c2ccccc12)NC(=O)[C@@H](CC(C)C)NC(=O)[C@H](Cc1c[nH]c2ccccc12)NC(=O)[C@@H](CC(C)C)NC(=O)[C@@H](NC(=O)[C@H](NC(=O)[C@H](C)NC(=O)[C@H](NC(=O)[C@H](C)NC(=O)CNC(=O)[C@@H](NC=O)C(C)C)C(C)C)C(C)C)C(C)C)C(=O)N[C@@H](Cc1c[nH]c2ccccc12)C(=O)NCCO [compound 7864] (For-VGA[dV]A[dV]V[dL]W[dL]W[dL]W[dL]W-NHCH2CH2OH) the antibacterial activity [1] was “+”, the “H+/Na+ transport activity normalized” value [2] was 1.01 and the cell viability/% [3] was 10.8%.

For CNC(=O)C[C@@H](NC(=O)[C@@H](NC(=O)[C@@H](CC(C)C)NC(=O)[C@H](C)NC(=O)[C@H](NC(=O)[C@H](C)NC(=O)CNC(=O)[C@@H](NC=O)C(C)C)C(C)C)C(C)C)C(=O)N[C@@H](Cc1c[nH]c2ccccc12)C(=O)N[C@@H](C(=O)N[C@@H](Cc1c[nH]c2ccccc12)C(=O)N[C@@H](C(=O)N[C@@H](Cc1c[nH]c2ccccc12)C(=O)N[C@@H](C(=O)N[C@@H](Cc1c[nH]c2ccccc12)C(=O)NCCO)C(C)C)C(C)C)C(C)C [compound 12576] (For-VGA[dV]A[dL]V[dD](NHMe)W[dV]W[dV]W[dV]W-NHCH2CH2OH), the antibacterial activity [1] was “-”, the “H+/Na+ transport activity normalized” value [2] was 1.09 and the cell viability/% [3] was 100.0%.

With CNC(=O)C[C@@H](NC(=O)[C@@H](NC(=O)[C@@H](CC(C)C)NC(=O)[C@H](C)NC(=O)[C@H](NC(=O)[C@H](C)NC(=O)CNC(=O)[C@@H](NC=O)C(C)C)C(C)C)C(C)C)C(=O)N[C@@H](Cc1c[nH]c2ccccc12)C(=O)N[C@H](CC(C)C)C(=O)N[C@@H](Cc1c[nH]c2ccccc12)C(=O)N[C@H](CC(C)C)C(=O)N[C@@H](Cc1c[nH]c2ccccc12)C(=O)N[C@@H](C(=O)N[C@@H](Cc1c[nH]c2ccccc12)C(=O)NCCO)C(C)C [compound 6360] (For-VGA[dV]A[dL]V[dD](NHMe)W[dL]W[dL]W[dV]W-NHCH2CH2OH) the antibacterial activity [1] was “-”, the “H+/Na+ transport activity normalized” value [2] was 1.03 and the cell viability/% [3] was 67.2%.

In the case of CC(C)[C@H](NC=O)C(=O)NCC(=O)N[C@@H](C)C(=O)N[C@@H](C(=O)N[C@@H](C)C(=O)N[C@@H](C(=O)N[C@H](C(=O)N[C@@H](C(=O)N[C@@H](Cc1c[nH]c2ccccc12)C(=O)N[C@@H](C(=O)N[C@@H](Cc1c[nH]c2ccccc12)C(=O)N[C@@H](C(=O)N[C@@H](Cc1c[nH]c2ccccc12)C(=O)N[C@@H](C(=O)N[C@@H](Cc1c[nH]c2ccccc12)C(=O)NCCO)C(C)C)C(C)C)[C@H](C)O)C(C)C)C(C)C)C(C)C)C(C)C [compound 5205] (For-VGA[dV]A[dV]V[dV]W[dT]W[dV]W[dV]W-NHCH2CH2OH), the antibacterial activity [1] is reported as “-”, the “H+/Na+ transport activity normalized” value [2] is reported as 1.22 and the cell viability/% [3] is reported as 100.0%.

For CNC(=O)C[C@@H](NC(=O)[C@@H](NC(=O)[C@H](NC(=O)[C@H](C)NC(=O)[C@@H](CC(C)C)NC(=O)[C@H](C)NC(=O)CNC(=O)[C@@H](NC=O)C(C)C)C(C)C)C(C)C)C(=O)N[C@@H](Cc1c[nH]c2ccccc12)C(=O)N[C@@H](C(=O)N[C@@H](Cc1c[nH]c2ccccc12)C(=O)N[C@H](CC(C)C)C(=O)N[C@@H](Cc1c[nH]c2ccccc12)C(=O)N[C@H](CC(C)C)C(=O)N[C@@H](Cc1c[nH]c2ccccc12)C(=O)NCCO)C(C)C [compound 3584] (For-VGA[dL]A[dV]V[dD](NHMe)W[dV]W[dL]W[dL]W-NHCH2CH2OH), the antibacterial activity [1] was “-”, the “H+/Na+ transport activity normalized” value [2] was 1.22 and the cell viability/% [3] was 100.0%.

With CC(C)C[C@@H](NC(=O)[C@H](C)NC(=O)[C@H](NC(=O)[C@H](C)NC(=O)CNC(=O)[C@@H](NC=O)C(C)C)[C@H](C)O)C(=O)N[C@H](C(=O)N[C@H](CC(C)C)C(=O)N[C@@H](Cc1c[nH]c2ccccc12)C(=O)N[C@H](CC(C)C)C(=O)N[C@@H](Cc1c[nH]c2ccccc12)C(=O)N[C@@H](C(=O)N[C@@H](Cc1c[nH]c2ccccc12)C(=O)N[C@@H](C(=O)N[C@@H](Cc1c[nH]c2ccccc12)C(=O)NCCO)C(C)C)C(C)C)C(C)C [compound 9125] (For-VGA[dT]A[dL]V[dL]W[dL]W[dV]W[dV]W-NHCH2CH2OH) the antibacterial activity [1] was “-”, the “H+/Na+ transport activity normalized” value [2] was 1.04 and the cell viability/% [3] was 44.2%.

In the case of CC(C)C[C@@H](NC(=O)[C@H](Cc1c[nH]c2ccccc12)NC(=O)[C@@H](CC(C)C)NC(=O)[C@@H](NC(=O)[C@H](NC(=O)[C@H](C)NC(=O)[C@H](NC(=O)[C@H](C)NC(=O)CNC(=O)[C@@H](NC=O)C(C)C)C(C)C)C(C)C)C(C)C)C(=O)N[C@@H](Cc1c[nH]c2ccccc12)C(=O)N[C@@H](C(=O)N[C@@H](Cc1c[nH]c2ccccc12)C(=O)N[C@@H](C(=O)N[C@@H](Cc1c[nH]c2ccccc12)C(=O)NCCO)C(C)C)[C@H](C)O [compound 5311] (For-VGA[dV]A[dV]V[dL]W[dL]W[dT]W[dV]W-NHCH2CH2OH), the antibacterial activity [1] is reported as “+”, the “H+/Na+ transport activity normalized” value [2] is reported as 1.15 and the cell viability/% [3] is reported as 100.0%.

In the case of CC(C)C[C@@H](NC(=O)[C@H](C)NC(=O)CNC(=O)[C@@H](NC=O)C(C)C)C(=O)N[C@@H](C)C(=O)N[C@@H](C(=O)N[C@H](C(=O)N[C@H](CC(C)C)C(=O)N[C@@H](Cc1c[nH]c2ccccc12)C(=O)N[C@@H](C(=O)N[C@@H](Cc1c[nH]c2ccccc12)C(=O)N[C@@H](C(=O)N[C@@H](Cc1c[nH]c2ccccc12)C(=O)N[C@@H](C(=O)N[C@@H](Cc1c[nH]c2ccccc12)C(=O)NCCO)C(C)C)C(C)C)C(C)C)C(C)C)C(C)C [compound 7938] (For-VGA[dL]A[dV]V[dL]W[dV]W[dV]W[dV]W-NHCH2CH2OH), the antibacterial activity [1] is reported as “+”, the “H+/Na+ transport activity normalized” value [2] is reported as 1.10 and the cell viability/% [3] is reported as 17.4%.

In the case of CC(C)C[C@@H](NC(=O)[C@H](C)NC(=O)CNC(=O)[C@@H](NC=O)C(C)C)C(=O)N[C@@H](C)C(=O)N[C@H](CC(C)C)C(=O)N[C@H](C(=O)N[C@@H](C(=O)N[C@@H](Cc1c[nH]c2ccccc12)C(=O)N[C@H](CC(C)C)C(=O)N[C@@H](Cc1c[nH]c2ccccc12)C(=O)N[C@H](CC(C)C)C(=O)N[C@@H](Cc1c[nH]c2ccccc12)C(=O)N[C@@H](C(=O)N[C@@H](Cc1c[nH]c2ccccc12)C(=O)NCCO)C(C)C)[C@H](C)O)C(C)C [compound 11295] (For-VGA[dL]A[dL]V[dT]W[dL]W[dL]W[dV]W-NHCH2CH2OH), the antibacterial activity [1] is reported as “-”, the “H+/Na+ transport activity normalized” value [2] is reported as 1.12 and the cell viability/% [3] is reported as 78.1%.

With CC(C)C[C@@H](NC(=O)[C@H](C)NC(=O)CNC(=O)[C@@H](NC=O)C(C)C)C(=O)N[C@@H](C)C(=O)N[C@@H](C(=O)N[C@H](C(=O)N[C@@H](C(=O)N[C@@H](Cc1c[nH]c2ccccc12)C(=O)N[C@H](CC(C)C)C(=O)N[C@@H](Cc1c[nH]c2ccccc12)C(=O)N[C@H](CC(C)C)C(=O)N[C@@H](Cc1c[nH]c2ccccc12)C(=O)N[C@@H](C(=O)N[C@@H](Cc1c[nH]c2ccccc12)C(=O)NCCO)C(C)C)[C@H](C)O)C(C)C)C(C)C [compound 13268] (For-VGA[dL]A[dV]V[dT]W[dL]W[dL]W[dV]W-NHCH2CH2OH) the antibacterial activity [1] was “+”, the “H+/Na+ transport activity normalized” value [2] was 1.03 and the cell viability/% [3] was 100.0%.

With CC(C)C[C@@H](NC(=O)[C@H](Cc1c[nH]c2ccccc12)NC(=O)[C@H](NC(=O)[C@@H](NC(=O)[C@H](NC(=O)[C@H](C)NC(=O)[C@H](NC(=O)[C@H](C)NC(=O)CNC(=O)[C@@H](NC=O)C(C)C)C(C)C)C(C)C)C(C)C)[C@H](C)O)C(=O)N[C@@H](Cc1c[nH]c2ccccc12)C(=O)N[C@@H](C(=O)N[C@@H](Cc1c[nH]c2ccccc12)C(=O)N[C@@H](C(=O)N[C@@H](Cc1c[nH]c2ccccc12)C(=O)NCCO)C(C)C)C(C)C [compound 8596] (For-VGA[dV]A[dV]V[dT]W[dL]W[dV]W[dV]W-NHCH2CH2OH) the antibacterial activity [1] was “-”, the “H+/Na+ transport activity normalized” value [2] was 1.07 and the cell viability/% [3] was 56.2%.
